Usually Papp A→B stands for the apparent permeability from the apical to the basolateral side of a cell layer. Read a low Papp A→B as slow passage. A word on the Papp B→A: it is the apparent permeability from the basolateral to the apical side of a cell layer. The term viability denotes a per cent measure of how many cells are alive, often set against a control.

Data set [1] has as its system HepG2 human hepatocellular liver carcinoma cell line. The experiment in a line: XTT in vitro hepatotoxicity assay on HepG2 cells. The conditions noted are these: at 1000 μM. The data set is classed as cell-based. On the procedure:
(§1) HepG2 cells are considered as a useful model to study in vitro xenobiotic metabolism and liver toxicity. In particular, HepG2 cells are able to activate and detoxify xenobiotics and, they are the reason why these cells are intensively used in toxicology[58],[59]. Hepatotoxicity was determined using the XTT assay.
(§2) The final DMSO concentration was set at <0.1%. Rosiglitazone and Pioglitazone were used as positive controls. IC50 values and cell viability % were calculated.

Data set [2] concerns STZ-NA-induced diabetic rats. The data set can be described thus: Antidiabetic activity in STZ-NA-induced type 2 diabetic rats. The conditions noted are these: for HbA1c / blood glucose levels / HDL-C / Hb levels / TC, TG, VLDL-C and LDL-C: 15 days; for blood glucose levels: vs diabetic control rats; for HDL-C / Hb levels / TC, TG, VLDL-C and LDL-C: vs disease control (STZ + NA). The method, then:
The test dose was fixed based on the predicted LD50 value. […] Diabetic rats were orally treated with the test compounds at a dose of 36 mg/kg body weight for a period of 15 days. Fasting blood glucose of control, diabetic-untreated and diabetic-treated rats were tested on Days 1, 3, 7 and 15 of the treatment period (Fig. 6A).
Male Wistar strain rats weighing about 160–200 g were used for animal studies. […] Rats were provided with rodent diet and water ad libitum. […] The animals were allowed to drink 5% glucose solution overnight to prevent STZ-NA-induced hypoglycemia[82],[83]. The rats were considered as diabetic if their blood glucose levels were above 250 mg/dL on the 3rd day after STZ-NA injection. The rats were divided into four groups of six animals in each group. Control animals received normal saline (Group I). Diabetic rats received STZ-NA injection (Group II). […] The blood glucose level of each group was checked at 1, 3, 7 and 15 Day by withdrawing blood from tail vein of the animal using glucose meter (ACCu-Chek active, Roche, Diagnostics USA).
After pharmacological screening for antidiabetic activity, the animals were subjected to overnight fasting and blood was collected from retro-orbital region under light anaesthesia for performing various biochemical experiments. All the biochemical experiments were performed using commercially available kits. Total Hb was estimated by cyanomethaemoglobin method, while HbA1c was estimated from whole blood using commercially available kits following the manufacturer guidelines (ERBA Diagnostics Inc, Accurex Biomedical Pvt. Ltd., Coral clinical systems, India). TG concentration was determined by GPO-POD enzymatic-colorimetric method. TC level was measured by the end point, CHOD-POD colorimetric methods. HDL-C was assayed by the method reported earlier. VLDL-C and LDL-C in plasma were calculated by the Friedewald formula: VLDL-C = TG/5; LDL-C = TC-(HDL-C + VLDL-C)[88]. Levels of serum urea, uric acid, and creatinine were measured using commercially available kits[89].
Rats were sacrificed under light anesthesia using diethylether at the end of the pharmacological and biochemical studies. […] Then, the tissue was sliced out into sections of 5 µm thickness by a rotator microtome and stained with hematoxylin-eosin. Obtained sections were examined by a Leica DME microscope, and representative photomicrographs were taken by a 7.1 megapixel Canon Power Shot S70 digital camera.

Data set [3] can be described thus: In vitro Caco-2 permeability. To be noted: human; for Papp A→B at 150 min, 2 µM / Papp B→A at 150 min, 2 µM: Caco-2, 2 µM, pH 6.5/7.4, n = 2; for Papp at 150 min, 2 µM: Caco-2, based on Papp,A-B, read-out: Permeability Rank. Format: in vitro ADME. The method, then:
(§3) The oral bioavailability of compounds in terms of Caco-2 and MDCK-II permeability and the P-glycoprotein (P-gp) efflux ratio were assessed. The in vitro intrinsic half-life (T1/2,int) and the apparent intrinsic clearance (CLint,app) of compounds were also measured after incubation with human liver microsomes at 37.5 °C[65]. […] Quantification was done by LC-MS/MS. P-gp substrate activity was assessed by the efflux ratio (the ratio of Papp in the B-to-A direction over that in the A-to-B direction). […] P-gp is an ATP-dependent transporter on the apical plasma membrane of enterocytes that functions to limit the entry of drugs into the cell.
On the technique in general: Caco-2 monolayers are a common model of the intestinal barrier.

The subject of another data set is P-gp. The data set can be described thus: In vitro Caco-2 permeability. The conditions noted are these: human; Caco-2, 2 µM, 150 min; read-out: Efflux Ratio (B > A/A > B). Format: in vitro ADME. The method, then: as §3
Data set [4] in a line: In vitro MDCK-II permeability. Format: in vitro ADME. To be noted: dog; for Papp A→B at 150 min, 2 µM / Papp B→A at 150 min, 2 µM: pH 7.4/7.4, n = 2; for Papp at 150 min, 2 µM: based on Papp,A-B, read-out: Permeability Rank. The method, then: (§4) The oral bioavailability of compounds in terms of Caco-2 and MDCK-II permeability and the P-glycoprotein (P-gp) efflux ratio were assessed. […] Quantification was done by LC-MS/MS. P-gp substrate activity was assessed by the efflux ratio (the ratio of Papp in the B-to-A direction over that in the A-to-B direction). […] P-gp is an ATP-dependent transporter on the apical plasma membrane of enterocytes that functions to limit the entry of drugs into the cell.

Data set [5] is described as follows: XTT in vitro hepatotoxicity assay on HepG2 cells. Format: cell-based, human. The conditions noted are these: human, highest tested concentration (1000 μM), read-out: cell viability. On the procedure:
as §1, §2

The subject of a further data set is Caco-2 monolayers. The data set can be described thus: In vitro Caco-2 permeability. The data set is classed as in vitro ADME. The method, then: as §3
The next data set concerns MDCK-II monolayers. The data set can be described thus: In vitro MDCK-II permeability. Format: in vitro ADME. On the procedure: as §4
The mark [6] stands for this setting: 36 mg/kg, light microscopy, hematoxylin-eosin.
Setting [7] is: Caco-2, 2 µM, 150 min, pH 6.5/7.4, n = 2.
Where [8] appears, read: 2 µM, 150 min, pH 7.4/7.4, n = 2.

As to `CCCCNC(=O)CN1C(=O)S/C(=C\c2ccc(Cl)cc2)C1=O` [3a], the “cell viability compared with Rosiglitazone” value in data set [1] is reported as “did not show any significant difference”. For the same compound, in data set [2] (36 mg/kg oral), the HbA1c result is given as “significantly prevented the increase”, the blood glucose levels result is listed as “significantly reduced”, the HDL-C entry is “increase” and the Hb levels entry was “significant increase”. The “TC, TG, VLDL-C and LDL-C” value in data set [2] (36 mg/kg oral) is on record as “significant decrease”. Further, the “blood glucose lowering activity compared with standard” value in data set [2] (36 mg/kg oral, data for 15th Day) was “equivalent to the standard drug Pioglitazone”. Besides, in data set [2] (setting [6]), the “histological changes of pancreas (islets, β-cells)” value (“histological changes of pancreas” below) is given as “restored to near normal”. Moreover, in data set [3], the Papp A→B at 150 min, 2 µM was found to be 1.6 ×10⁻⁶ cm/s; the Papp B→A at 150 min, 2 µM is 19.3 ×10⁻⁶ cm/s; the Papp at 150 min, 2 µM was below 5 ×10⁻⁶ cm/s. Also, the efflux ratio at 150 min, 2 µM in the data set on P-gp worked out at 3.2. In addition, in data set [4], the Papp A→B at 150 min, 2 µM was determined as 0.8 ×10⁻⁶ cm/s; the Papp B→A at 150 min, 2 µM is 0.4 ×10⁻⁶ cm/s; the Papp at 150 min, 2 µM was below 5 ×10⁻⁶ cm/s.
`CCN(CC)C(=O)CN1C(=O)S/C(=C\c2ccccc2)C1=O` [1i]: the viability at 1000 µM in data set [5] turned out to be 64 ± 3.93%. In data set [2] (36 mg/kg oral), the HbA1c entry is recorded as “significantly prevented the increase”, the blood glucose levels result is “significantly reduced”, the HDL-C entry is listed as “increase” and the Hb levels result was “significant increase”. In addition, in data set [2] (36 mg/kg oral), the “TC, TG, VLDL-C and LDL-C” value was “significant decrease”. In addition, the “histological changes of pancreas” value in data set [2] (setting [6]) is given as “restored to near normal”. In addition, in data set [3], the Papp A→B at 150 min, 2 µM worked out at 23 ×10⁻⁶ cm/s; the Papp B→A at 150 min, 2 µM was determined as 51.2 ×10⁻⁶ cm/s; the Papp at 150 min, 2 µM is at least 5 ×10⁻⁶ cm/s. Further, in the data set on P-gp, the efflux ratio at 150 min, 2 µM was determined as 2.7. Besides, in data set [4], the Papp A→B at 150 min, 2 µM stood at 16.3 ×10⁻⁶ cm/s; the Papp B→A at 150 min, 2 µM came out at 11.9 ×10⁻⁶ cm/s; the Papp at 150 min, 2 µM was at least 5 ×10⁻⁶ cm/s.
On to `CCCCNC(=O)CN1C(=O)S/C(=C\c2ccccc2)C1=O` [1a], for which the “cell viability compared with Rosiglitazone” value in data set [1] is given as “did not show any significant difference”. Further, in data set [2] (36 mg/kg oral), the HbA1c result was “significantly prevented the increase”, the blood glucose levels entry is “significantly reduced”, the HDL-C result was “increase” and the Hb levels entry is “significant increase”. Also, in data set [2] (36 mg/kg oral), the “TC, TG, VLDL-C and LDL-C” value is given as “significant decrease”. In addition, in data set [2] (setting [6]), the “histological changes of pancreas” value is reported as “restored to near normal” and the liver histopathology result is reported as “no hepatic abnormalities”. In addition, in the data set with Caco-2 monolayers (setting [7]), the “Avg Papp A to B” value was found to be 2.4 ×10⁻⁶ cm/s and the “Avg Papp B to A” value amounted to 14.3 ×10⁻⁶ cm/s. Besides, the “Permeability Rank” value in the data set on Caco-2 monolayers (Caco-2, based on Papp,A-B) is given as “Low (Low, Papp,A-B < 5 × 10^−6 cm/sec)”. For the same compound, in the data set with MDCK-II monolayers (setting [8]), the “Avg Papp A to B” value is 1.8 ×10⁻⁶ cm/s and the “Avg Papp B to A” value amounted to 2.5 ×10⁻⁶ cm/s. Also, the “Permeability Rank” value in the data set on MDCK-II monolayers (based on Papp,A-B) is given as “Low (Low, Papp,A-B < 5 × 10^−6 cm/sec)”.

These data come from PMC5663708, “Novel Benzylidene Thiazolidinedione Derivatives as Partial PPARγ Agonists and their Antidiabetic Effects on Type 2 Diabetes” (Scientific Reports, 2017).
